Measurements reported in PubChem BioAssay AID1259407 (Chemical Carcinogenesis Research Information System (CCRIS), 2018).
Active and inactive are the calls of the source. No rule for the calls is given here.

Test system: CCRIS mutagenicity, Ames/micronucleus/aberration tests
Assay: CCRIS mutagenicity studies
[1] = Test System: AMES SALMONELLA TYPHIMURIUM, Strain/Indicator: TA98, Metabolic Activation: NONE, Method: PREINCUBATION
[2] = Test System: AMES SALMONELLA TYPHIMURIUM, Strain/Indicator: TA100, Metabolic Activation: NONE, Method: PREINCUBATION
[3] = Test System: AMES SALMONELLA TYPHIMURIUM, Strain/Indicator: TA1535, Metabolic Activation: NONE, Method: PREINCUBATION
[4] = Test System: AMES SALMONELLA TYPHIMURIUM, Strain/Indicator: TA1537, Metabolic Activation: NONE, Method: PREINCUBATION

Measured: mutagenic call

CC(=O)N(O)c1ccc(-c2ccccc2)cc1
active: Test System: AMES SALMONELLA TYPHIMURIUM, Strain/Indicator: TA98(1,8-DNP6), Metabolic Activation: RAT, LIVER, S-9, AROCLOR, Method: PREINCUBATION active; positive | Test System: AMES SALMONELLA TYPHIMURIUM, Strain/Indicator: TA98, Metabolic Activation: DOG, BLADDER, MICROSOMES, Method: PREINCUBATION active; positive | Test System: AMES SALMONELLA TYPHIMURIUM, Strain/Indicator: TA98, Metabolic Activation: DOG, LIVER, MICROSOMES, Method: PREINCUBATION active; positive | Test System: AMES SALMONELLA TYPHIMURIUM, Strain/Indicator: TA98, Metabolic Activation: HUMAN, UROEPITHELIAL CELL, CYTOSOL, Method: PREINCUBATION active; positive | Test System: AMES SALMONELLA TYPHIMURIUM, Strain/Indicator: TA98, Metabolic Activation: HUMAN, UROEPITHELIAL CELL, MICROSOMES, Method: PREINCUBATION active; positive | Test System: AMES SALMONELLA TYPHIMURIUM, Strain/Indicator: TA98, Metabolic Activation: HUMAN, UROEPITHELIAL CELL, S-9, Method: PREINCUBATION active; positive | Test System: AMES SALMONELLA TYPHIMURIUM, Strain/Indicator: TA98, Metabolic Activation: RAT, LIVER, CYTOSOL, Method: PREINCUBATION active; positive | Test System: AMES SALMONELLA TYPHIMURIUM, Strain/Indicator: TA98, Metabolic Activation: RAT, LIVER, MICROSOMES, Method: PREINCUBATION active; positive | Test System: AMES SALMONELLA TYPHIMURIUM, Strain/Indicator: TA98, Metabolic Activation: RAT, LIVER, S-9, AROCLOR, Method: PREINCUBATION active; positive | Test System: AMES SALMONELLA TYPHIMURIUM, Strain/Indicator: YG1024, Metabolic Activation: HUMAN, UROEPITHELIAL CELL, MICROSOMES, Method: PREINCUBATION active; positive | Test System: UDS HUMAN FIBROBLASTS, Strain/Indicator: THY INCORP (NON-S-PHASE), Metabolic Activation: NONE, Method: AUTORADIOGRAPHY active; positive
inactive: Test System: AMES SALMONELLA TYPHIMURIUM, Strain/Indicator: TA98(1,8-DNP6), Metabolic Activation: HUMAN, UROEPITHELIAL CELL, MICROSOMES, Method: PREINCUBATION inactive; negative | Test System: AMES SALMONELLA TYPHIMURIUM, Strain/Indicator: TA98(1,8-DNP6), Metabolic Activation: NONE, Method: PREINCUBATION inactive; negative | [1] inactive; negative | Test System: AMES SALMONELLA TYPHIMURIUM, Strain/Indicator: TA98, Metabolic Activation: RAT, BLADDER, MICROSOMES, Method: PREINCUBATION inactive; negative

CCOc1ccccc1[N+](=O)[O-]
active: [2] active; positive | [3] active; positive
inactive: [1] inactive; negative | [4] inactive; negative | Test System: AMES SALMONELLA TYPHIMURIUM, Strain/Indicator: TA1538, Metabolic Activation: NONE, Method: PREINCUBATION inactive; negative

CC(CO)(CO)CO
inactive: [1] inactive; negative | Test System: AMES SALMONELLA TYPHIMURIUM, Strain/Indicator: TA98, Metabolic Activation: RAT LIVER S-9, PHENOBARBITAL AND BETA-NAPHTHOFLAVONE, Method: PREINCUBATION inactive; negative | [2] inactive; negative | Test System: AMES SALMONELLA TYPHIMURIUM, Strain/Indicator: TA100, Metabolic Activation: RAT LIVER S-9, PHENOBARBITAL AND BETA-NAPHTHOFLAVONE, Method: PREINCUBATION inactive; negative | [3] inactive; negative | Test System: AMES SALMONELLA TYPHIMURIUM, Strain/Indicator: TA1535, Metabolic Activation: RAT LIVER S-9, PHENOBARBITAL AND BETA-NAPHTHOFLAVONE, Method: PREINCUBATION inactive; negative | [4] inactive; negative | Test System: AMES SALMONELLA TYPHIMURIUM, Strain/Indicator: TA1537, Metabolic Activation: RAT LIVER S-9, PHENOBARBITAL AND BETA-NAPHTHOFLAVONE, Method: PREINCUBATION inactive; negative | Test System: E.COLI, Strain/Indicator: WP2UVRA/PKM101, Metabolic Activation: NONE, Method: PREINCUBATION inactive; negative | Test System: E.COLI, Strain/Indicator: WP2UVRA/PKM101, Metabolic Activation: RAT LIVER S-9, PHENOBARBITAL AND BETA-NAPHTHOFLAVONE, Method: PREINCUBATION inactive; negative

COc1cc2c(c3oc(=O)c4c(c13)CCC4=O)[C@@]1(O)[C@@H](O2)O[C@@H]2O[C@@H]21
active: Test System: AMES SALMONELLA TYPHIMURIUM, Strain/Indicator: TA100, Metabolic Activation: NONE, Method: MICROSUSPENSION active; positive | Test System: AMES SALMONELLA TYPHIMURIUM, Strain/Indicator: TA100, Metabolic Activation: RAT, LIVER, S-9, AROCLOR 1254, Method: MICROSUSPENSION active; positive

O[C@H]([C@H](O)[C@@H](O)CBr)[C@H](O)CBr
inactive: Test System: AMES SALMONELLA TYPHIMURIUM, Strain/Indicator: TA98, Metabolic Activation: HAMSTER, LIVER, S-9, AROCLOR 1254 (10%), Method: PREINCUBATION inactive; negative | [1] inactive; negative | Test System: AMES SALMONELLA TYPHIMURIUM, Strain/Indicator: TA98, Metabolic Activation: RAT, LIVER, S-9, AROCLOR 1254 (10%), Method: PREINCUBATION inactive; negative | Test System: AMES SALMONELLA TYPHIMURIUM, Strain/Indicator: TA1537, Metabolic Activation: HAMSTER, LIVER, S-9, AROCLOR 1254 (10%), Method: PREINCUBATION inactive; negative | [4] inactive; negative | Test System: AMES SALMONELLA TYPHIMURIUM, Strain/Indicator: TA1537, Metabolic Activation: RAT, LIVER, S-9, AROCLOR 1254 (10%), Method: PREINCUBATION inactive; negative
active: Test System: AMES SALMONELLA TYPHIMURIUM, Strain/Indicator: TA100, Metabolic Activation: HAMSTER, LIVER, S-9, AROCLOR 1254 (10%), Method: PREINCUBATION active; positive | [2] active; positive | Test System: AMES SALMONELLA TYPHIMURIUM, Strain/Indicator: TA100, Metabolic Activation: RAT, LIVER, S-9, AROCLOR 1254 (10%), Method: PREINCUBATION active; positive | Test System: AMES SALMONELLA TYPHIMURIUM, Strain/Indicator: TA1535, Metabolic Activation: HAMSTER, LIVER, S-9, AROCLOR 1254 (10%), Method: PREINCUBATION active; positive | [3] active; positive | Test System: AMES SALMONELLA TYPHIMURIUM, Strain/Indicator: TA1535, Metabolic Activation: RAT, LIVER, S-9, AROCLOR 1254 (10%), Method: PREINCUBATION active; positive

c1ccc(Cc2ccc(CC3CO3)cc2)cc1 (stereo not drawn)
inactive: [2] inactive; negative | [3] inactive; negative
active: Test System: AMES SALMONELLA TYPHIMURIUM, Strain/Indicator: TA100, Metabolic Activation: NONE, Method: STANDARD PLATE active; positive | Test System: AMES SALMONELLA TYPHIMURIUM, Strain/Indicator: TA1535, Metabolic Activation: NONE, Method: STANDARD PLATE active; positive
